The text below walks through data of article PMC8617507 (Proceedings of the National Academy of Sciences of the …, 2021).

Values joined by “and” are separate entries in the source; they are usually repeats but may differ in a detail not shown here. Identical values can stand only once. Like-named read-outs stand apart in the source and are kept apart here.

One data set deals with S. pneumoniae T4. Nature of the data set: Lysis and killing kinetics. Conditions: THCz-1 5.1 µg/mL, penicillin G 0.06 μg/mL, tetracycline 2 μg/mL.
A further data set relates to B. subtilis 168. Nature of the data set: Bacterial cell wall integrity assay. Format: cell-based, Bacillus subtilis. Conditions: 30 min exposure; phase-contrast microscopy.
Data set [1] relates to B. subtilis PliaI-lux LiaRS bioreporter. The data set can be described thus: Luciferase reporter assay. Format: cell-based, Bacillus subtilis. To be noted: 2 µg/mL THCz-1, 128 µg/mL THCz-5, 8 µg/mL THCz-39, 4 µg/mL THCz-40. On the technique in general: A reporter such as luciferase makes a cellular process visible.
A further data set concerns S. pneumoniae. Nature of the data set: MIC, broth microdilution. Format: cell-based, Streptococcus pneumoniae. Conditions: for MIC: Streptococcus pneumoniae, S. pneumoniae T4 in supplemented C+Y medium, most abundant MIC, Table 2; for reduction in MIC in comparison to THCz-1: S. pneumoniae T4, vs. original screening hit THCz-1. In general terms: Dilution methods test growth across graded concentrations, often in twofold steps.

The next data set relates to B. subtilis GFP-MinD. The data set can be described thus: MinD delocalization studies. Format: cell-based, Bacillus subtilis. To be noted: within 5 min.
Data set [2] deals with B. subtilis PypuA-lacZ (cell wall) bioreporter. Nature of the data set: β-Galactosidase reporter assay, cell wall reporter. Format: cell-based, Bacillus subtilis. Conditions: 10 µg THCz-1, 20 µg THCz-40, 80 µg THCz-39, 100 µg THCz-5 spotted on agar.
For data set [3], the system named is Lung epithelial A549 cells.
The test system of data set [4] is Lung epithelial A549 cells. The data set can be described thus: cells. To be noted: Homo sapiens.
The next data set has as its system PBP2. Nature of the data set: PBP2-catalyzed transglycosylation of lipid II in vitro. Format: biochemical, S. aureus. Conditions: compared to THCz-1 and THCz-40.

Consider `CN(C)[C@@H]1C(O)=C(C(N)=O)C(=O)[C@@]2(O)C(O)=C3C(=O)c4c(O)cccc4[C@@](C)(O)[C@H]3C[C@@H]12` [Tet, tetracycline], for which, in the data set with S. pneumoniae T4, the lysis kinetics result was “growth-inhibitory phenotype without any prominent lysis”.
`CN[C@H](CC(C)C)C(=O)N[C@H]1C(=O)N[C@@H](CC(N)=O)C(=O)N[C@H]2C(=O)N[C@H]3C(=O)N[C@H](C(=O)N[C@H](C(=O)O)c4cc(O)cc(O)c4-c4cc3ccc4O)[C@H](O)c3ccc(c(Cl)c3)Oc3cc2cc(c3O[C@@H]2O[C@H](CO)[C@@H](O)[C@H](O)[C@H]2O[C@H]2C[C@](C)(N)[C@H](O)[C@H](C)O2)Oc2ccc(cc2Cl)[C@H]1O` [vancomycin]: the “cell shape deformations / cell membrane blebbing” value with B. subtilis 168 is on record as “Membrane blebbing was also observed”.
One may read the MIC as the smallest concentration in the dilution series that meets the test's criterion for growth inhibition. Lower therefore signals a more susceptible organism. In general, IC50 refers to the midpoint of a concentration-inhibition curve. A lower IC50 goes with higher potency. As for `c1ccc(CCOC2CCCc3c2[nH]c2ccccc32)cc1` (centres unmarked) [THCz-5], the “induction of PliaI-lux bioluminescence (LiaRS stress response)” value in data set [1] was “except for the inactive analog THCz-5”. Further, in the data set with S. pneumoniae, the MIC is > 100 µM and > 29.1 µg/mL. In addition, in the data set on B. subtilis GFP-MinD, the “delocalization of GFP-MinD (membrane depolarization)” value is reported as “MinD delocalization was also observed”. The “induction of the cell wall responsive reporter strain” value in data set [2] is “but not THCz-5”. The “increase of IC50 (cytotoxicity)” value in data set [3] (THCz-5 vs. THCz-19) was “about sixfold”. In addition, the half-inhibitory concentration (IC50) in data set [4] was 141 µM and 41 µg/mL.
Take bacitracin: the “cell shape deformations / cell membrane blebbing” value with B. subtilis 168 is given as “Membrane blebbing was also observed”.
On the same count and under the same terms, then “nisin (ITSISLCTPGCKTGALMGCNMKTATCHCSIHVSK; not fully specified; Lantibiotic nisin-A; UniProt P13068 24-57, looked up)”, with “Membrane blebbing was also observed”.
For `c1ccc(CCNC2CCCc3c2oc2ccc(-c4ccccc4)cc32)cc1` (centres unmarked) [THCz-6], in the data set on S. pneumoniae, the MIC is 50 µM and 18.4 µg/mL. Further, the “increase of IC50 (cytotoxicity)” value in data set [3] (THCz-6 vs. THCz-2) is “about sevenfold”. For the same molecule, the IC50 in [4] was 134 µM and 49.3 µg/mL.
`Cc1ccc2[nH]c3c(c2c1)CCCC3NCCc1ccc(O)cc1` (centres unmarked) [THCz-39]: the “higher concentration required for full inhibition of the PBP2-catalyzed reaction” value in the data set with PBP2 is given as “fourfold”. In the data set with S. pneumoniae, the “reduction in MIC in comparison to THCz-1” value was “twofold to fourfold”; the MIC is 6.3 µM to 12.5 µM and 2 µg/mL to 4 µg/mL. Besides, the “induction of the cell wall responsive reporter strain” value in data set [2] was “specifically induced”. Besides, the 50% inhibitory concentration (IC50) in data set [4] was 33.4 µM and 10.7 µg/mL. Moreover, the “cell shape deformations / cell membrane blebbing” value in the data set with B. subtilis 168 is recorded as “induced characteristic cell shape deformations”.
For the molecule `c1ccc(CCNC2CCCc3c2[nH]c2ccccc32)cc1` (centres unmarked) [THCz-19], the minimum inhibitory concentration (MIC) against S. pneumoniae was 6.3 µM and 1.9 µg/mL. In addition, the IC50 in data set [4] is 22.2 µM and 6.8 µg/mL.
`Cc1ccc2[nH]c3c(c2c1)CCCC3NCCc1ccc(Br)cc1` (centres unmarked) [THCz-40]: in the data set with S. pneumoniae, the “reduction in MIC in comparison to THCz-1” value is “twofold to fourfold”; the MIC is 6.3 µM and 2.4 µg/mL. Moreover, the “induction of the cell wall responsive reporter strain” value in data set [2] is “specifically induced”. In data set [4], the IC50 was 28 µM and 10.7 µg/mL. For the same molecule, the “cell shape deformations / cell membrane blebbing” value in the data set with B. subtilis 168 is “induced characteristic cell shape deformations”.
